According to patent US20210386367A1, “DEVICES AND SYSTEMS FOR GASTROINTESTINAL MICROBIOME DETECTION AND MANIPULATION” (Progenity, Inc., priority 2018, published 2021):
≈ marks a conversion by molar mass, not a printed value. Where “and” joins values, the source holds several entries; their conditions need not be identical. Equal entries are not always repeated. Where two headings read alike, the source gives them in different places.

Experiments:
Assay type in all cases: cell-based
[1] = system: Staphylococcus aureus clinical isolates; assay: MIC distribution against clinical isolates; conditions: 50 S. aureus isolates
Text: As used herein, “minimum inhibitory concentration” or “MIC” refers to the lowest concentration of an antimicrobial agent, for example, an antimicrobial agent as described herein, required to inhibit the growth of an organism.
(§1) Many susceptibility testing methods are known in the art and can be used as described herein (see, e.g., Jorgensen and Ferraro (2009) Clinical Infectious Diseases 49:1749-1755; and Maurer et al. (2017) Infectious Disease Reports 9:6839; the entire contents of each of the foregoing are incorporated herein by reference). For example, antimicrobial susceptibility can be determined using conventional culture based methods such as the broth or agar dilution test. In these dilution tests, the bacterial isolate of interest is inoculated onto different media that include serial dilutions of an antimicrobial agent, and incubated under appropriate conditions (e.g., overnight at 37° C.) to allow for growth to occur. Following the incubation period, the media is examined to determine bacterial growth. The lowest concentration of antibiotic that prevents growth represents the minimal inhibitory concentration (MIC). Broth dilution tests can be miniaturized and mechanized allowing for reproducibility and high throughput.

[2] = system: Streptococcus spp. clinical isolates; assay: MIC distribution against clinical isolates
Text: (n=19 S. pyogenes, n=20 S. agalactiae and n=20 Viridans group Streptococcus) clinical isolates (μg/mL).
As used herein, “minimum inhibitory concentration” or “MIC” refers to the lowest concentration of an antimicrobial agent, for example, an antimicrobial agent as described herein, required to inhibit the growth of an organism. […] “MIC90” represents the MIC value at which ≥90% of the strains within a test population are inhibited; the 90th percentile.
as §1

Enterococcus faecalis = assay: Broth microdilution MIC, 50 clinical isolates; conditions: for MIC50 / MIC90: Enterococcus faecalis
Protocol: (§2) Minimal inhibitory concentration (MIC) values were determined by broth microdilution or agar dilution in accordance with guidelines from the Clinical and Laboratory Standards Institute (CLSI; (1) “Methods for Dilution Antimicrobial Susceptibility Tests for Bacteria That Grow Aerobically; Approved Standard; 11th ed.” CLSI standard M07-A11, 2018; (2) “Performance Standards for Antimicrobial Susceptibility Testing; Twenty-Eighth Informational Supplement,” CLSI document M100-S28, 2018; and (3) “Methods for Antimicrobial Susceptibility Testing of Anaerobic Bacteria; Approved Standard—Eighth Edition,” CLSI document M11-A8, 2012).
(§3) Tested aerobically by broth microdilution: • Escherichia coli, n=50 • Klebsiella spp., n=50 • Pseudomonas aeruginosa, n=50 • Streptococcus spp., n=50 • Staphylococcus aureus, n=50 • Enterococcus faecalis, n=50 • Enterobacter aerogenes, n=50 • Proteus mirabilis, n=50
(§4) Broth microdilution testing of aerobic bacteria was conducted in cation-adjusted Mueller Hinton broth (MHBII). For testing streptococci, lysed horse blood (LHB) was added to MHBII broth at a final concentration of 3%. Where LHB was used, it was added after filtering.
(§5) Broth microdilution susceptibility testing in 96-well microplates was conducted in accordance with CLSI methods (1) and (2). Automated liquid handlers were used to conduct serial dilutions and liquid transfers, including the Multidrop 384 (Labsystems, Helsinki, Finland), Biomek 2000, and the Biomek FX (Beckman Coulter, Fullerton, Calif.). All wells in columns 2 through 12 of a standard 96-well microdilution plate (Costar 3795) were filled with 150 μL of the appropriate diluent. Then, 300 μL of the test agents were added to the wells of column 1 of the plates at 100× the highest final concentration to be tested. Serial two-fold dilutions were made across the rows through column 11 using the Biomek 2000. The wells of column 12 contained no drug and served as the growth control wells. This plate served as the “mother plate” from which MIC assay plates or “daughter plates” were made.
(§6) The daughter plates were loaded with 190 μL per well of the appropriate medium using the Multidrop 384. The daughter plates were created using the Biomek FX which transferred 2 μL of drug solution from each well of a mother plate to each corresponding well of the daughter plate in a single step. A standardized inoculum of each test organism was prepared per CLSI methods (1) to equal a 0.5 McFarland standard, followed by a dilution of 1:20 for aerobes and 1:10 for anaerobes. The plates were then inoculated with 10 μL of the diluted inoculum using the Biomek 2000 from low to high drug concentration, resulting in a final concentration of approximately 5×10^5 CFU/mL per well. An un-inoculated plate was incubated in parallel for each medium for the purpose of assessing solubility of the drug in the test media.
(§7) Inoculated plates were stacked 3 or 4 high, covered with a sterile lid on the top plate, placed into boxes with CO2 planchets (streptococci) or plastic bags (all other isolates). Plates were incubated at 35° C. for 16-24 hr in ambient air for aerobes or for 42-48 hr in the anaerobic environment of the Bactron II anaerobe chamber (Sheldon Manufacturing Co.; Cornelius, Oreg.). Following incubation, the microplates were removed from the incubator and viewed from the bottom using a plate viewer. The MIC values were read and recorded as the lowest concentration of drug that inhibited visible growth of the organism as per CLSI methods (1) and (2).

Staphylococcus aureus = assay: Broth microdilution MIC, 50 clinical isolates (28 MRSA); conditions: for MIC50 / MIC90: Staphylococcus aureus
Protocol: as §2, §3, §4, §5, §6, §7

Streptococcus spp. = assay: Broth microdilution MIC, 54 clinical isolates; conditions: for Mode: modal MIC
Protocol: as §2, §3, §4, §5, §6, §7

[3] = system: Viridans group Streptococcus; assay: Broth microdilution MIC, 15 clinical isolates; conditions: for MIC50 / MIC90: Streptococcus; for Mode: modal MIC
Protocol: as §2, §3, §4, §5, §6, §7

[4] = MIC 0.06 μg/mL, 54 Streptococcus spp. isolates
[5] = MIC 0.5 μg/mL, 54 Streptococcus spp. isolates
[6] = MIC 2 μg/mL, 54 Streptococcus spp. isolates
[7] = MIC 4 μg/mL, 54 Streptococcus spp. isolates
[8] = MIC 8 μg/mL, 54 Streptococcus spp. isolates
[9] = 54 Streptococcus spp. clinical isolates
[10] = 15 Viridans group Streptococci clinical isolates

COc1c(N2C[C@@H]3CCCN[C@@H]3C2)c(F)cc2c(=O)c(C(=O)O)cn(C3CC3)c12 [moxifloxacin]
Cumulative percentage of isolates inhibited at MIC ([1]; MIC 0.015 μg/mL): 14.0% | Number of test isolates at MIC ([1]; MIC 0.015 μg/mL): 7 | Cumulative percentage of isolates inhibited at MIC ([1]; MIC 0.03 μg/mL): 30.0% | Number of test isolates at MIC ([1]; MIC 0.03 μg/mL): 8 | Cumulative percentage of isolates inhibited at MIC ([1]; MIC 0.06 μg/mL): 48.0% | Number of test isolates at MIC ([1]; MIC 0.06 μg/mL): 9 | Number of test isolates at MIC ([1]; MIC 0.5 μg/mL): 4 | Cumulative percentage of isolates inhibited at MIC ([1]; MIC 1 μg/mL): 84.0% | Number of test isolates at MIC ([1]; MIC 1 μg/mL): 12 | Cumulative percentage of isolates inhibited at MIC ([1]; MIC 2 μg/mL): 94.0% | Number of test isolates at MIC ([1]; MIC 2 μg/mL): 5 | Cumulative percentage of isolates inhibited at MIC ([1]; MIC 4 μg/mL): 96.0% | Number of test isolates at MIC ([1]; MIC 4 μg/mL): 1 | Cumulative percentage of isolates inhibited at MIC ([1]; MIC 8 μg/mL): 98.0% | Number of test isolates at MIC ([1]; MIC 8 μg/mL): 1 | Cumulative percentage of isolates inhibited at MIC ([1]; MIC >8 μg/mL): 100.0% | Number of test isolates at MIC ([1]; MIC >8 μg/mL): 1 | Number of test isolates at MIC ([1]; MIC […]): 1 | Cumulative percentage of isolates inhibited at MIC [2, 4]: 24.1% | Number of test isolates at MIC [2, 4]: 13 | Cumulative percentage of isolates inhibited at MIC [2, 5]: 90.7% | Number of test isolates at MIC [2, 5]: 1 | Cumulative percentage of isolates inhibited at MIC [2, 6]: 94.4% | Number of test isolates at MIC [2, 6]: 2 | Cumulative percentage of isolates inhibited at MIC [2, 7]: 98.1% | Number of test isolates at MIC [2, 7]: 2 | Cumulative percentage of isolates inhibited at MIC [2, 8]: 100.0% | Number of test isolates at MIC [2, 8]: 1 | Mode (Enterococcus faecalis): >8 µg/mL | MIC50 (Enterococcus faecalis; read-out: MIC50): 0.5 µg/mL (≈ 1.25 µM) | MIC90 (Enterococcus faecalis; read-out: MIC90): > 8 µg/mL | Mode (Staphylococcus aureus): 1 µg/mL | MIC50 (Staphylococcus aureus; read-out: MIC50): 0.12 µg/mL (≈ 0.299 µM) | MIC90 (Staphylococcus aureus; read-out: MIC90): 2 µg/mL (≈ 4.98 µM) | MIC range (Streptococcus spp.; [9]): 0.06 to 8 µg/mL | MIC50 (Streptococcus spp.; 54 Streptococcus spp. clinical isolates, read-out: MIC50): 0.12 µg/mL (≈ 0.299 µM) | MIC90 (Streptococcus spp.; 54 Streptococcus spp. clinical isolates, read-out: MIC90): 0.5 µg/mL (≈ 1.25 µM) | Mode (Streptococcus spp.; [9]): 0.12 µg/mL | MIC range [3, 10]: 0.06 to 8 µg/mL | MIC50 ([3]; 15 Viridans group Streptococci clinical isolates, read-out: MIC50): 0.12 µg/mL (≈ 0.299 µM) | MIC90 ([3]; 15 Viridans group Streptococci clinical isolates, read-out: MIC90): 4 µg/mL (≈ 9.96 µM) | Mode [3, 10]: 0.06 µg/mL

CN[C@H](CC(C)C)C(=O)N[C@H]1C(=O)N[C@@H](CC(N)=O)C(=O)N[C@H]2C(=O)N[C@H]3C(=O)N[C@H](C(=O)N[C@H](C(=O)O)c4cc(O)cc(O)c4-c4cc3ccc4O)[C@H](O)c3ccc(c(Cl)c3)Oc3cc2cc(c3O[C@@H]2O[C@H](CO)[C@@H](O)[C@H](O)[C@H]2O[C@H]2C[C@](C)(N)[C@H](O)[C@H](C)O2)Oc2ccc(cc2Cl)[C@H]1O [vancomycin, Vancomycin]
Cumulative percentage of isolates inhibited at MIC ([1]; MIC 1 μg/mL): 100.0% | Cumulative percentage of isolates inhibited at MIC ([2]; MIC 1 μg/mL, 54 Streptococcus spp. isolates): 100.0% | Cumulative percentage of isolates inhibited at MIC ([2]; listed as VAN): 50.0% and 96.3% | % R (Enterococcus faecalis): 26% | % S (Enterococcus faecalis): 74% ^ | Mode (Enterococcus faecalis): 0.5 µg/mL | MIC50 (Enterococcus faecalis): 1 µg/mL (≈ 0.69 µM) | MIC90 (Enterococcus faecalis): > 32 µg/mL | % R (Enterococcus faecalis; listed as VAN): 26% ^ | % S (Staphylococcus aureus): 100% | MIC range (Staphylococcus aureus): 0.25 to 1 µg/mL | Mode (Staphylococcus aureus): 0.5 µg/mL | MIC50 (Staphylococcus aureus): 0.5 µg/mL (≈ 0.345 µM) | MIC90 (Staphylococcus aureus): 1 µg/mL (≈ 0.69 µM) | MIC range (Streptococcus spp.; [9]): 0.25 to 1 µg/mL | % S (Streptococcus spp.; 54 Streptococcus spp. clinical isolates, MXF by FDA breakpoints): 100% | MIC50 (Streptococcus spp.; Streptococcus): 0.25 µg/mL (≈ 0.173 µM) | MIC90 (Streptococcus spp.; Streptococcus): 0.5 µg/mL (≈ 0.345 µM) | Mode (Streptococcus spp.; [9]): 0.25 µg/mL | MIC range [3, 10]: 0.25 to 1 µg/mL | % S ([3]; 15 Viridans group Streptococci clinical isolates, MXF by FDA breakpoints): 100% | MIC50 [3]: 0.5 µg/mL (≈ 0.345 µM) | MIC90 [3]: 0.5 µg/mL (≈ 0.345 µM) | Mode [3, 10]: 0.5 µg/mL
